# Experimental data from patent US9227971B2, “Pyrazolo[1,5-a]pyrimidine compounds as mTOR inhibitors” (Merck Sharp & Dohme Corp., priority 2010, dated 2016).
# Read-outs that look alike come from different tables or passages of the source.
# Columns and labels:
# [1] = tested on: phosphorylated AKT Ser473 (pAKT S473), mTORC2 activity, PC3 cells; assay: mTOR target engagement assay, immunofluorescent cell-based, pAKT S473 readout (mTORC2 activity); settings: PC3 cells
# Procedure, shortened: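 After blocking, cells were stained overnight at 4 °C with anti-pAKT S473 antibody, then a fluorescent secondary; inhibition was read as reduced fluorescence intensity.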
# [2] = tested on: phosphorylated 4E-BP1 Thr37/46 (p4E-BP1 Thr37/46), mTORC1 activity, PC3 cells; assay: mTOR target engagement assay, immunofluorescent cell-based, p4E-BP1 Thr37/46 readout (mTORC1 activity); settings: PC3 cells, read-out: p4E-BP1 Thr37/46 IC50
# Procedure, shortened: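 Seed PC3 cells overnight; treat with compound dilutions for ninety minutes at 37° C; fix with glyoxal and block; stain with anti-p4E-BP1 Thr37/46 overnight at 4° C, then fluorescent secondary; read fluorescence and fit IC50 against DMSO-only controls.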
smiles,measurement,setting,value
"CS(=O)(=O)c1c([C@@H]2C[C@H]3CC[C@@H](C2)N3C(=O)c2nnc[nH]2)nc2c(-c3ccc(-c4c(F)cccc4F)nc3)cnn2c1N [Compound 3.107, ((1R,3s,5S)-3-(7-amino-3-(6-(2,6-difluorophenyl)pyridin-3-yl)-6-(methylsulfonyl)pyrazolo[1,5-a]pyrimidin-5-yl)-8-azabicyclo[3.2.1]octan-8-yl)(4H-1,2,4-triazol-3-yl)methanone]",IC50,"[1]; Homo sapiens, PC-3, Table 3-1",1 to 100 nM
same,IC50,"[2]; Homo sapiens, PC-3, Table 3-1",1 to 100 nM
"CS(=O)(=O)c1c([C@@H]2C[C@H]3CC[C@@H](C2)N3C(=O)c2nnc[nH]2)nc2c(-c3ccc(-c4ccc(F)cc4F)nc3)cnn2c1N [Compound 3.108, ((1R,3s,5S)-3-(7-amino-3-(6-(2,4-difluorophenyl)pyridin-3-yl)-6-(methylsulfonyl)pyrazolo[1,5-a]pyrimidin-5-yl)-8-azabicyclo[3.2.1]octan-8-yl)(4H-1,2,4-triazol-3-yl)methanone]",IC50,"[1]; Homo sapiens, PC-3, Table 3-1",1 to 100 nM
same,IC50,"[2]; Homo sapiens, PC-3, Table 3-1",1 to 100 nM
"CS(=O)(=O)c1c([C@@H]2C[C@H]3CC[C@@H](C2)N3C(=O)c2nnc[nH]2)nc2c(-c3ccc(-c4cn[nH]c4)nc3)cnn2c1N [Compound 3.109, ((1R,3s,5S)-3-(3-(6-(1H-pyrazol-4-yl)pyridin-3-yl)-7-amino-6-(methylsulfonyl)pyrazolo[1,5-a]pyrimidin-5-yl)-8-azabicyclo[3.2.1]octan-8-yl)(4H-1,2,4-triazol-3-yl)methanone]",IC50,"[1]; Homo sapiens, PC-3, Table 3-1",1000 to 10000 nM
same,IC50,"[2]; Homo sapiens, PC-3, Table 3-1",1000 to 10000 nM
"CS(=O)(=O)c1c([C@@H]2C[C@H]3CC[C@@H](C2)N3C(=O)c2nnc[nH]2)nc2c(-c3ccc(-c4ccc(C(F)(F)F)cc4F)nc3)cnn2c1N [Compound 3.110, ((1R,3s,5S)-3-(7-amino-3-(6-(2-fluoro-4-(trifluoromethyl)phenyl)pyridin-3-yl)-6-(methylsulfonyl)pyrazolo[1,5-a]pyrimidin-5-yl)-8-azabicyclo[3.2.1]octan-8-yl)(4H-1,2,4-triazol-3-yl)methanone]",IC50,"[1]; Homo sapiens, PC-3, Table 3-1",100 to 1000 nM
same,IC50,"[2]; Homo sapiens, PC-3, Table 3-1",1000 to 10000 nM
"Cn1cc(-c2cnn3c(N)c(S(C)(=O)=O)c([C@@H]4C[C@H]5CC[C@@H](C4)N5C(=O)c4nnc[nH]4)nc23)cn1 [Compound 3.111, ((1R,3s,5S)-3-(7-amino-3-(1-methyl-1H-pyrazol-4-yl)-6-(methylsulfonyl)pyrazolo[1,5-a]pyrimidin-5-yl)-8-azabicyclo[3.2.1]octan-8-yl)(4H-1,2,4-triazol-3-yl)methanone]",IC50,"[1]; Homo sapiens, PC-3, Table 3-1",1000 to 10000 nM
same,IC50,"[2]; Homo sapiens, PC-3, Table 3-1",1000 to 10000 nM
"Cn1cc(-c2cnn3c(N)c(S(C)(=O)=O)c([C@@H]4C[C@H]5CC[C@@H](C4)N5C(=O)CO)nc23)cn1 [Compound 3.112, 1-((1R,3s,5S)-3-(7-amino-3-(1-methyl-1H-pyrazol-4-yl)-6-(methylsulfonyl)pyrazolo[1,5-a]pyrimidin-5-yl)-8-azabicyclo[3.2.1]octan-8-yl)-2-hydroxyethanone]",IC50,"[1]; Homo sapiens, PC-3, Table 3-1",> 10000 nM
same,IC50,"[2]; Homo sapiens, PC-3, Table 3-1",1000 to 10000 nM
"CS(=O)(=O)c1c([C@@H]2C[C@H]3CC[C@@H](C2)N3C(=O)c2nnc[nH]2)nc2c(-c3cn[nH]c3)cnn2c1N [Compound 3.113, ((1R,3s,5S)-3-(7-amino-6-(methylsulfonyl)-3-(1H-pyrazol-4-yl)pyrazolo[1,5-a]pyrimidin-5-yl)-8-azabicyclo[3.2.1]octan-8-yl)(4H-1,2,4-triazol-3-yl)methanone]",IC50,"[1]; Homo sapiens, PC-3, Table 3-1",> 10000 nM
same,IC50,"[2]; Homo sapiens, PC-3, Table 3-1",1000 to 10000 nM
"CS(=O)(=O)c1c([C@@H]2C[C@H]3CC[C@@H](C2)N3C(=O)CO)nc2c(-c3cn[nH]c3)cnn2c1N [Compound 3.114, 1-((1R,3s,5S)-3-(7-amino-6-(methylsulfonyl)-3-(1H-pyrazol-4-yl)pyrazolo[1,5-a]pyrimidin-5-yl)-8-azabicyclo[3.2.1]octan-8-yl)-1-hydroxyethanone]",IC50,"[1]; Homo sapiens, PC-3, Table 3-1",> 10000 nM
same,IC50,"[2]; Homo sapiens, PC-3, Table 3-1",> 10000 nM
"Cc1nnc(C(=O)N2[C@@H]3CC[C@H]2C[C@H](c2nc4c(-c5cn[nH]c5)cnn4c(N)c2S(C)(=O)=O)C3)[nH]1 [Compound 3.115, ((1R,3s,5S)-3-(7-amino-6-(methylsulfonyl)-3-(1H-pyrazol-4-yl)pyrazolo[1,5-a]pyrimidin-5-yl)-8-azabicyclo[3.2.1]octan-8-yl)(5-methyl-4H-1,2,4-triazol-3-yl)methanone]",IC50,"[1]; Homo sapiens, PC-3, Table 3-1",> 10000 nM
same,IC50,"[2]; Homo sapiens, PC-3, Table 3-1",> 10000 nM
"CS(=O)(=O)c1c([C@@H]2C[C@H]3CC[C@@H](C2)N3C(=O)c2ccn[nH]2)nc2c(-c3cn[nH]c3)cnn2c1N [Compound 3.117, ((1R,3a,4S)-3-(7-amino-6-(methylsulfonyl)-3-(1H-pyrazol-4-yl)pyrazolo[1,5-a]pyrimidin-5-yl)-8-azabicyclo[3.2.1]octan-8-yl)(1H-pyrazol-5-yl)methanone]",IC50,"[1]; Homo sapiens, PC-3, Table 3-1",> 10000 nM
same,IC50,"[2]; Homo sapiens, PC-3, Table 3-1",> 10000 nM
"Cc1nnc(C(=O)N2[C@@H]3CC[C@H]2C[C@H](c2nc4c(-c5ccc(-c6ccc(F)cc6)nc5)cnn4c(N)c2S(C)(=O)=O)C3)[nH]1 [Compound 3.119, ((1R,3s,5S)-3-(7-amino-3-(6-(4-fuorophenyl)pyridin-3-yl)-6-(methylsulfonyl)pyrazolo[1,5-a]pyrimidin-5-yl)-8-azabicyclo[3.2.1]octan-8-yl)(5-methyl-4H-1,2,4-triazol-3-yl)methanone]",IC50,[1]; Table 3-1,1 to 100 nM
same,IC50,[2]; Table 3-1,1 to 100 nM
"CS(=O)(=O)c1c([C@@H]2C[C@H]3CC[C@@H](C2)N3C(=O)c2cc(N)n[nH]2)nc2c(-c3ccc(-c4ccc(F)cc4)nc3)cnn2c1N [Compound 3.120, (3-amino-1H-pyrazol-5-yl)((1R,3s,5S)-3-(7-amino-3-(6-(4-fluorophenyl)pyridin-3-yl)-6-(methylsulfonyl)pyrazolo[1,5-a]pyrimidin-5-yl)-8-azabicyclo[3.2.1]octan-8-yl)methanone]",IC50,[1]; Table 3-1,1 to 100 nM
same,IC50,[2]; Table 3-1,1 to 100 nM
"CS(=O)(=O)c1c([C@@H]2C[C@H]3CC[C@@H](C2)N3C(=O)c2nnc[nH]2)nc2c(-c3cnn(-c4ccccn4)c3)cnn2c1N [Compound 3.123, ((1R,3s,5S)-3-(7-amino-6-(methylsulfonyl)-3-(1-(pyridin-2-yl)-1H-pyrazol-4-yl)pyrazolo[1,5-a]pyrimidin-5-yl)-8-azabicyclo[3.2.1]octan-8-yl)(4H-1,2,4-triazol-3-yl)methanone]",IC50,"[1]; Homo sapiens, PC-3, Table 3-1",100 to 1000 nM
same,IC50,"[2]; Homo sapiens, PC-3, Table 3-1",100 to 1000 nM
"CS(=O)(=O)c1c([C@@H]2C[C@H]3CC[C@@H](C2)N3C(=O)CO)nc2c(-c3cnn(-c4ccccn4)c3)cnn2c1N [Compound 3.124, 1-((1R,3s,5S)-3-(7-amino-6-(methylsulfonyl)-3-(1-(pyridin-2-yl)-1H-pyrazol-4-yl)pyrazolo[1,5-a]pyrimidin-5-yl)-8-azabicyclo[3.2.1]octan-8-yl)-2-hydroxyethanone]",IC50,"[1]; Homo sapiens, PC-3, Table 3-1",100 to 1000 nM
same,IC50,"[2]; Homo sapiens, PC-3, Table 3-1",1000 to 10000 nM
"CS(=O)(=O)c1c([C@@H]2C[C@H]3CC[C@@H](C2)N3C(N)=O)nc2c(-c3ccc(-c4ccc(F)cc4F)nc3)cnn2c1N [Compound 3.125, (1R,3s,5S)-3-(7-amino-3-(6-(2,4-difluorophenyl)pyridin-3-yl)-6-(methylsulfonyl)pyrazolo[1,5-a]pyrimidin-5-yl)-8-azabicyclo[3.2.1]octane-8-carboxamide]",IC50,"[1]; Homo sapiens, PC-3, Table 3-1",1 to 100 nM
same,IC50,"[2]; Homo sapiens, PC-3, Table 3-1",100 to 1000 nM
"CS(=O)(=O)c1c([C@@H]2C[C@H]3CC[C@@H](C2)N3C(N)=O)nc2c(-c3ccc(-c4ccc(F)cc4)nc3)cnn2c1N [Compound 3.126, (1R,3s,5S)-3-(7-amino-3-(6-(4-fluorophenyl)pyridin-3-yl)-6-(methylsulfonyl)pyrazolo[1,5-a]pyrimidin-5-yl)-8-azabicyclo[3.2.1]octane-8-carboxamide]",IC50,"[1]; Homo sapiens, PC-3, Table 3-1",1 to 100 nM
same,IC50,"[2]; Homo sapiens, PC-3, Table 3-1",1 to 100 nM
"Cc1nnc(C(=O)N2[C@@H]3CC[C@H]2C[C@H](c2nc4c(-c5ccc(-c6ccc(F)cc6F)nc5)cnn4c(N)c2S(C)(=O)=O)C3)[nH]1 [Compound 3.127, ((1R,3s,5S)-3-(7-amino-3-(6-(2,4-difluorophenyl)pyridin-3-yl)-6-(methylsulfonyl)pyrazolo[1,5-a]pyrimidin-5-yl)-8-azabicyclo[3.2.1]octan-8-yl)(5-methyl-4H-1,2,4-triazol-3-yl)methanone]",IC50,"[1]; Homo sapiens, PC-3, Table 3-1",100 to 1000 nM
same,IC50,"[2]; Homo sapiens, PC-3, Table 3-1",1 to 100 nM
"CS(=O)(=O)c1c([C@@H]2C[C@H]3CC[C@@H](C2)N3C(=O)CO)nc2c(-c3ccc(-c4ccc(F)cc4F)nc3)cnn2c1N [Compound 3.128, 1-((1R,3s,5S)-3-(7-amino-3-(6-(2,4-difluorophenyl)pyridin-3-yl)-6-(methylsulfonyl)pyrazolo[1,5-a]pyrimidin-5-yl)-8-azabicyclo[3.2.1]octan-8-yl)-2-hydroxyethanone]",IC50,"[1]; Homo sapiens, PC-3, Table 3-1",100 to 1000 nM
same,IC50,"[2]; Homo sapiens, PC-3, Table 3-1",100 to 1000 nM
"CS(=O)(=O)c1c([C@@H]2C[C@H]3CC[C@@H](C2)N3C(=O)c2cc(N)n[nH]2)nc2c(-c3ccc(-c4ccc(F)cc4F)nc3)cnn2c1N [Compound 3.129, (3-amino-1H-pyrazol-5-yl)((1R,3s,5S)-3-(7-amino-3-(6-(2,4-difluorophenyl)pyridin-3-yl)-6-(methylsulfonyl)pyrazolo[1,5-a]pyrimidin-5-yl)-8-azabicyclo[3.2.1]octan-8-yl)methanone]",IC50,"[1]; Homo sapiens, PC-3, Table 3-1",1 to 100 nM
same,IC50,"[2]; Homo sapiens, PC-3, Table 3-1",1 to 100 nM
"CCNC(=O)N1[C@@H]2CC[C@H]1C[C@H](c1nc3c(-c4ccc(-c5ccccc5F)nc4)cnn3c(N)c1S(C)(=O)=O)C2 [Compound 3.130, (1R,3s,5S)-3-(7-amino-3-(6-(2-fluorophenyl)pyridin-3-yl)-6-(methylsulfonyl)pyrazolo[1,5-a]pyrimidin-5-yl)-N-ethyl-8-azabicyclo[3.2.1]octane-8-carboxamide]",IC50,"[1]; Homo sapiens, PC-3, Table 3-1",100 to 1000 nM
same,IC50,"[2]; Homo sapiens, PC-3, Table 3-1",100 to 1000 nM
